The test addresses T1, hT1R1/hT1R3 umami receptor (Homo sapiens, UniProt Q7RTX0+Q7RTX1).
T1 construct: expressed in transfected cells; host or cells: HEK293 derivative stably expressing Gα15, clone I-17, expression induced with mifepristone
T1 sequence (Q7RTX1 21-841): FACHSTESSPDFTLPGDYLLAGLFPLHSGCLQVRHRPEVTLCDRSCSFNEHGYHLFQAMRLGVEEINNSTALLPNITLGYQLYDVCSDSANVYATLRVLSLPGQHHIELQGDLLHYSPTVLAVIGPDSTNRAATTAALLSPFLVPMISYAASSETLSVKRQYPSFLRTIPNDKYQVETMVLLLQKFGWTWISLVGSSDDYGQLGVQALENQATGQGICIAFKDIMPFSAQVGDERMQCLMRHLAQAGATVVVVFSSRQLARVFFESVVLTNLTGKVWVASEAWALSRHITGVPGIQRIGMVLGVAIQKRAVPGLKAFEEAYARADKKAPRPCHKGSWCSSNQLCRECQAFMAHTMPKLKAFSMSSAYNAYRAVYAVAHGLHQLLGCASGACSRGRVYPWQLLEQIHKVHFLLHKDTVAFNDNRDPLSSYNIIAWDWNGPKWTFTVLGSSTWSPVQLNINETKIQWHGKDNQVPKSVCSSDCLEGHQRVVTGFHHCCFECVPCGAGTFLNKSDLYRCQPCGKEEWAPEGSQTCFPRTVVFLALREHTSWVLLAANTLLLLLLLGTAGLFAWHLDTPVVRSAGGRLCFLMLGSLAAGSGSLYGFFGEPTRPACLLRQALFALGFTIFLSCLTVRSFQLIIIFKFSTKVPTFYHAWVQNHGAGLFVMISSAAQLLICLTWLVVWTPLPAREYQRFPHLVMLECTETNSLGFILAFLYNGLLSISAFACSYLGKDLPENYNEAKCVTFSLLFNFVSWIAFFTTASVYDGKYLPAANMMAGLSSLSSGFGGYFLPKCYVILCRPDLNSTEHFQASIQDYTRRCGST
T1 sequence (Q7RTX0 21-852): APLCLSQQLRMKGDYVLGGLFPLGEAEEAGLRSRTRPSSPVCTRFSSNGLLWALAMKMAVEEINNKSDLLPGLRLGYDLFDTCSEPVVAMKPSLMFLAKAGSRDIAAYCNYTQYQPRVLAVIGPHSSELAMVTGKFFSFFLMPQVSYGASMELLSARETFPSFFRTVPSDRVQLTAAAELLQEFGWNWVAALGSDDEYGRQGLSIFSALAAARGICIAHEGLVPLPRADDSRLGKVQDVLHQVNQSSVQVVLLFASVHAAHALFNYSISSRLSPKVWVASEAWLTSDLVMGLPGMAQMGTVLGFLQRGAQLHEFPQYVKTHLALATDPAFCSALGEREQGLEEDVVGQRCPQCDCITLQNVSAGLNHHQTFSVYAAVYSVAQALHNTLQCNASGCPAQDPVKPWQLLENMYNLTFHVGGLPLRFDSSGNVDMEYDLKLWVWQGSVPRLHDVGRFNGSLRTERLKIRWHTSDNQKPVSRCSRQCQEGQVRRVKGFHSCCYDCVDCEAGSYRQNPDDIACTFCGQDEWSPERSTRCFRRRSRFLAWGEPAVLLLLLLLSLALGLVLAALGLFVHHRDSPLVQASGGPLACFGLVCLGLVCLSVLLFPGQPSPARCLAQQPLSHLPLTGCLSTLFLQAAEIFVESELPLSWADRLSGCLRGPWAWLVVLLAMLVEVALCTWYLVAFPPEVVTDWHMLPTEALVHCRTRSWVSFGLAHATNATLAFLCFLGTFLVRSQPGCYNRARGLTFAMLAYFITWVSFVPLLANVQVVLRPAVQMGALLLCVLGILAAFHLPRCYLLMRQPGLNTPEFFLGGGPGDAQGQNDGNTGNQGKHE
Kind of test: In vitro hT1R1/hT1R3 umami taste receptor activation assay (FLIPR, dose response). It is filed as cell-based. An excerpt:
In order to identify new savory flavoring agents and enhancers, including compounds with savory agonist and enhancer activities (dual activity), the compounds of Formula (I) were screened in primary assays and secondary assays including compound dose response and enhancement assay. In a primary assay for potential ability to modulate umami taste, amide compounds of Formula (I) that can be either savory flavoring agents in their own right or flavor enhancers of MSG are identified and scores of their activities are given as percentage of the maximum MSG intensity (%). In compound dose response, an EC50 is calculated to reflect the potency of the compound as a savory agonist or enhancer.
An HEK293 cell line derivative (See e.g., Chandrashekar, et al., Cell (2000) 100: 703-711) which stably expresses Gα15 and hT1R1/hT1R3 under an inducible promoter (see WO 03/001876 A2) was used to identify compounds with savory tasting properties.
For dose-responses analysis, stimuli were presented in duplicates at 10 different concentrations ranging from 1.5 nM to 30 μM. Activities were normalized to the response obtained with 60 mM monosodium glutamate, a concentration that elicits maximum receptor response. […] Identical results were obtained when analyzing the dose-response data using commercially available software for non-linear regression analysis such as GraphPad PRISM (San Diego, Calif.).

Setting [1] is: Table A, Umami Amides, read-out: Umami EC50.
The mark [2] stands for this setting: read-out: EC50 for activation of a hT1R1/hT1R3 umami receptor expressed in an HEK293 cell line.
The mark [3] stands for this setting: Table D, Umami Acrylamides, read-out: Umami EC50.
Where [4] appears, read: Table C, Umami Ureas, read-out: Umami EC50.

The results in this text go back to patent US20060045953A1 (priority 2004, published 2006).

Read-outs that look alike come from different tables or passages of the source.

As to `COc1cccc(C(=O)N[C@@H]2CCCc3ccccc32)c1N` [drawing 29, (R)-2-amino-3-methoxy-N-(1,2,3,4-tetrahydronaphthalen-1-yl)benzamide], the EC50 (opposite enantiomers compared, read-out: AFFINITY FOR T1R1/T1R3 SAVORY RECEPTOR EC50 UM) is 90 nM.
As to `CCCC(CCC)NC(=O)c1cc(OC)nc(OC)n1` [Example A122, N-(heptan-4-yl)-2,6-dimethoxypyrimidine-4-carboxamide], the EC50 under setting [1] was 220 nM.
On to `COc1ccc(C(=O)NCCSCc2ccco2)cc1C` [Example 106, N-(2-(furan-2-ylmethylthio)ethyl)-4-methoxy-3-methylbenzamide], for which the EC50 under setting [2] is 5600 nM.
Still for that read-out and setting: the same measure for `CCOc1ccc(/C=C/C(=O)NC(CC)CC)cc1` [Example 82, 3-(4-Ethoxy-phenyl)-N-(1-ethyl-propyl)-acrylamide]: 1350 nM.
Take `CCCC(CCC)NC(=O)c1ccc2c(c1)NCCC2` [Example A119, N-(heptan-4-yl)-1,2,3,4-tetrahydroguinoline-7-carboxamide]: the EC50 under setting [1] is 50 nM.
On the same count and under the same terms, the result for `COc1ccc(C(=O)NC2CCc3ccccc32)cc1Cl` (stereo not shown) [Example A106, 3-chloro-N-(2,3-dihydro-1H-inden-1-yl)-4-methoxybenzamide] reads 1390 nM.
On to `CCCC(CCC)NC(=O)c1ccc2c(c1)OC(C)O2` (stereo not shown) [Example 18, N-(heptan-4-yl)-2-methylbenzo[d][1,3]dioxole-5-carboxamide], for which the EC50 under setting [2] stood at 100 nM.
`Cc1ccoc1C(=O)NC1CCCC(C)C1C` (stereo not shown) [Example A32, N-(2,3-dimethylcyclohexyl)-3-methylfuran-2-carboxamide]: the EC50 under setting [1] was found to be 1150 nM.
Same read-out and setting: the same measure for `CCCC(NC(=O)c1ccc2nc(C)oc2c1)C(C)C` (stereo not shown) [Example A26, 2-methyl-N-(2-methylhexan-3-yl)benzo[d]oxazole-6-carboxamide]: 1600 nM.
As for `CCOc1ccc(/C=C/C(=O)NC(C)CC)cc1` (stereo not shown) [Example D13, (E)-N-sec-butyl-3-(4-ethoxyphenyl)acrylamide], the EC50 under setting [3] stood at 1310 nM.
Turning to `CCCC(CCC)NC(=O)Nc1ccc(Cl)cc1Cl` [Example C22, 1-(2,4-dichlorophenyl)-3-(heptan-4-yl)urea], the EC50 under setting [4] worked out at 180 nM.
Regarding `CCC(CC)NC(=O)/C=C/c1ccc(OC)cc1` [Example D7, (E)-3-(4-methoxyphenyl)-N-(pentan-3-yl)acrylamide], under setting [3], the EC50 worked out at 820 nM.
As to `O=C(NCc1ccc(OC(F)(F)F)cc1)c1cccs1` [Example 105, N-(4-(trifluoromethoxy)benzyl)thiophene-2-carboxamide], the EC50 under setting [2] was determined as 2400 nM.
For `O=C(NCCc1ccccn1)C(=O)NCc1cc2ccccc2s1` [Example 150, N-(Benzo[b]thiophen-2-ylmethyl)-N′-(2-(pyridin-2-yl)ethyl)oxalamide], the EC50 under setting [2] stood at 740 nM.
For the molecule `COc1ccc2c(c1)CCC2NC(=O)c1ccc(O)c(C)c1` (stereo not shown) [Example A110, 4-hydroxy-N-(5-methoxy-2,3-dihydro-1H-inden-1-yl)-3-methylbenzamide], the EC50 under setting [1] was 300 nM.
The same measure, in the same setting: the result for `COc1ccc(C(=O)NC(C)CCc2ccccc2)cc1C` (stereo not shown) [Example A76, 4-methoxy-3-methyl-N-(4-phenylbutan-2-yl)benzamide] reads 400 nM.
For `CCCC(CC)NC(=O)c1cc2cc(C)ccc2o1` (stereo not shown) [Example 28, N-(hexan-3-yl)-5-methylbenzofuran-2-carboxamide], under setting [2], the EC50 stood at 740 nM.
Still for that read-out and setting: the same measure for `CCCC(CCC)NC(=O)c1ccc(N(CC)CC)cc1` [Example 92, 4-(diethylamino)-N-(heptan-4-yl)benzamide]: 7600 nM.
On the same count and under the same terms, the same measure for `CC(C)C[C@@H](NC(=O)c1ccc2c(c1)OCO2)C(=O)N1CCCC1CO` (stereo partly drawn) [Example 16, N-((R)-1-(2-(hydroxymethyl)pyrrolidin-1-yl)-4-methyl-1-oxopentan-2-yl)benzo[d][1,3]dioxole-5-carboxamide]: 3000 nM.
`O=C(Nc1ccccc1Cl)NC1CCCc2ccccc21` (stereo not shown) [Example C7, 1-(2-chlorophenyl)-3-(1,2,3,4-tetrahydronaphthalen-1-yl)urea]: the EC50 under setting [4] stood at 990 nM.
On to `CCCC(CCC)NC(=O)c1cccc(OC)c1` [Example A90, N-(heptan-4-yl)-3-methoxybenzamide], for which the EC50 under setting [1] amounted to 610 nM.
Turning to `COc1ccc(CNC(=O)C(=O)NCCc2ccccn2)cc1` [Example 128, N-(4-Methoxybenzyl)-N′-(2-pyridin-2-yl-ethyl)-oxalamide], under setting [2], the EC50 was 750 nM.
Consider `Cc1c(CNC(=O)C(=O)NCCc2ccccn2)sc2ccccc12` [Example B3], for which the EC50 (Table B, Umami Oxalamides, read-out: Umami EC50) worked out at 810 nM.
Regarding `COC(=O)[C@@H](CC(C)C)NC(=O)c1cc(C)cc(C)c1` [Example A85, (R)-methyl 2-(3,5-dimethylbenzamido)-4-methylpentanoate], the EC50 under setting [1] worked out at 530 nM.
As to `COC(=O)[C@@H](CC(C)C)NC(=O)/C=C/c1ccc(OC)cc1` [Example D2, (R,E)-methyl 2-(3-(4-methoxyphenyl)acrylamido)-4-methylpentanoate], the EC50 under setting [3] worked out at 320 nM.
On to `COC(=O)[C@@H](CC(C)C)NC(=O)c1ccc(OC)c(Cl)c1` [Example 62, (R)-methyl 2-(3-chloro-4-methoxybenzamido)-4-methylpentanoate], for which the EC50 under setting [2] came to 80 nM.
The same measure, in the same setting: the same measure for `CCC(CC(C)C)NC(=O)c1cc2cc(OC)ccc2o1` (stereo not shown) [Example 31, 5-methoxy-N-(5-methylhexan-3-yl)benzofuran-2-carboxamide]: 1040 nM; for `COc1ccc2c(c1)CCC2NC(=O)c1ccc(OC)c(C)c1` (racemic) [Example 121-2, (R/S)-4-Methoxy-N-(5-methoxy-2,3-dihydro-1H-inden-1-yl)-3-methylbenzamide]: 80 nM.
Same read-out and setting: the same measure for `COC(=O)[C@@H](CC(C)C)NC(=O)c1ccc(SC)cc1OC` [Example 74, (R)-methyl 2-(2-methoxy-4-(methylthio)benzamido)-4-methylpentanoate]: 15800 nM; for `Cc1occc1CNC(=O)C(=O)NCCc1ccccn1` [Example 153, N-((2-Methylfuran-3-yl)methyl)-N′-(2-(pyridin-2-yl)ethyl)oxalamide]: 1820 nM.
For `CCCC(NC(=O)c1ccc2c(c1)OCO2)C(=O)OC` (stereo not shown) [Example A49, 2-[(Benzo[1,3]dioxole-5-carbonyl)-amino]-pentanoic acid methyl ester], under setting [1], the EC50 is 1540 nM.
As to `CCCC(CCC)NC(=O)/C=C/c1ccsc1` [Example D15, (E)-N-(heptan-4-yl)-3-(thiophen-3-yl)acrylamide], the EC50 under setting [3] was determined as 1540 nM.
`CCCC(CCC)NC(=O)c1ccc(OC)nc1` [Example 94, N-(heptan-4-yl)-6-methoxynicotinamide]: the EC50 under setting [2] stood at 2660 nM.
Still for that read-out and setting: the same measure for `CCC(CC(C)C)NC(=O)/C=C/c1ccc(OC)cc1` (stereo not shown) [Example 75]: 240 nM.
